What was measured:
[1] = tested on: neutrophils from CB2R-/- mice; assay: Transwell neutrophil migration assay towards CXCL2, CB2R-/- neutrophils; type: cell-based, mouse; conditions: 10 nM CXCL2
Method: As described previously, mouse neutrophils were isolated from the bone marrow of mice. Mice were euthanized, femur and tibia were dissected and flushed with ice-cold 1× Hanks balanced salt solution (HBSS; supplemented with […], pH7.5, and 0.5 mM EDTA; Invitrogen) through a sterile filter (70 μm). The suspension was centrifuged at 300× g for 12 min at 4 °C. EasySep™ neutrophil enrichment kit ([…] Technologies Inc., Vancouver, BC, Canada) was used to isolate neutrophils according to the manufacturer’s instructions. The isolated neutrophils were then washed once and the pelleted cells were suspended in RPMI (Invitrogen) containing 1% heat-inactivated fetal bovine serum (FBS, Invitrogen) and used immediately for neutrophil migration experiments or processed for adoptive transfer. The murine neutrophil isolation protocol routinely yields cell suspensions that are >95% pure and viable, as determined by cresyl violet and trypan blue exclusion, respectively.
Neutrophil migration assays were performed using a Transwell migration assay. Isolated neutrophils (1 × 10^5 cells/100 μL) from WT or CB2R^-/- mice were incubated with vehicle (0.01% DMSO), or various concentrations of RO8671304 or RO6851228 at 37 °C, 5% CO2 for 30 min. […] The number of migrated neutrophils was then determined using ImageJ. […]

[2] = tested on: adhesion of adoptively-transferred leukocytes in the iridial microcirculation; assay: Adoptive transfer of WT leukocytes into neutrophil-depleted WT mice with EIU; type: in vivo, mouse; conditions: topical 1.5% w/v, 6 h post-EIU
Method: For adoptive transfer experiments, calcein-AM-labelled leukocytes were visualized by fluorescence (495 nm excitation) in the iridial microcirculation using a Leica DMLM epifluorescence microscope (Leica, Wetzlar, Germany) equipped with a mercury-arc light source (LEG EBQ 100, Carl Zeiss, Jena, Germany) and captured by a CCD video camera (SIT 68, DAGE MTI, Michigan, IN, USA). Videos were recorded using WinDV Capture software (Mourek, Prague, Czech Republic) and stored on an external hard drive.
During IVM animals were placed on a heating pad in a stereotactic frame, and Tear-Gel® (Novartis Pharmaceuticals Canada Inc., Dorval, QC, Canada) was applied to their cornea. The iris was divided into four equal quadrants by drawing two superficial lines on the cornea, lengthwise and widthwise. […] Two to four videos of each quadrant were recorded for 30 s each. Videos were analyzed off-line without knowledge of the treatment groups. […] Using ImageJ software (National Institute of Health, Bethesda, MD, USA) the number of adherent leukocytes within each vessel segment was calculated by measuring the diameter and length of vessel segment studied, assuming a cylindrical geometry of blood vessels. Adherent leukocytes were expressed as number of cells per mm^2 of endothelial surface. […] The number of rolling leukocytes was counted for 30 s and used to calculate the number of rolling leukocytes per min. […]

[3] = parameters: method as in earlier work; conditions: * previously published, cited from earlier work

CC(C)(C)c1nc(N2CC[C@H](O)C2)c2nnn(Cc3nnnn3C3CC3)c2n1 [RO6871304, (3S)-1-{5-tert-butyl-3-[(1-cyclopropyl-1H-tetrazol-5-yl)methyl]-3H-[1,2, 3]triazolo[4,5-d]pyrimidin-7-yl}pyrrolidin-3-ol]
CXCL2-induced migration of CB2R-/- neutrophils [1]: did not inhibit migration | decrease of LPS-induced adhesion of adoptively-transferred leukocytes compared to vehicle [2]: 64 fold | Thermodynamic Solubility in FaSSIF (pH 6.5) ([3]; FaSSIF pH 6.5): 80 μg/mL | Thermodynamic Solubility in FeSSIF (pH 5.5) ([3]; FeSSIF pH 5.5): 273 μg/mL | Thermodynamic Solubility in Aqueous Buffer (pH 6.5) ([3]; aqueous phosphate buffer pH 6.5): 56 μg/mL

Source: paper PMC6767236, “Selective Cannabinoid 2 Receptor Agonists as Potential Therapeutic Drugs for the Treatment of Endotoxin-Induced Uveitis” (Molecules, 2019)
